Results on 21 compounds are retold here after patent US11691969B2, “Pyridazinones as PARP7 inhibtors” (Ribon Therapeutics, Inc., priority 2019, dated 2023).

The test concerns the target PARP7 (Homo sapiens (Human), UniProt Q7Z3E1). Briefly: TR-FRET assay: displacement of biotinylated Probe A from the TIPARP active site (Enzymatic Assay for Inhibition of PARP7). It counts as binding. The conditions noted are these: TIPARP 6 nM, Probe A 2 nM, 25° C. The procedure:
Example A. Enzymatic Assay for Inhibition of PARP7
Displacement of Probe A, a biotinylated probe binding to the TIPARP active site, was measured using a time-resolved fluorescence energy transfer (TR-FRET) assay. 20 nL of a dose response curve of each test compound was spotted in black 384-well polystyrene proxiplates (Perkin Elmer) using a Mosquito (TTP Labtech). Reactions were performed in a 8 μl volume by adding 6 μL of TIPARP and Probe A in assay buffer (20 mM HEPES pH=8, 100 mM NaCl, 0.1% bovine serum albumin, 2 mM DTT and 0.002% Tween20), incubating with test compound at 25° C. for 30 min, then adding 2 μL of ULight-anti 6×His and LANCE Eu-W1024 labeled streptavidin (Perkin Elmer). The final concentrations of TIPARP and Probe A were 6 nM and 2 nM, respectively. The final concentration of ULight-anti 6×His and LANCE Eu-W1024 labeled streptavidin were 4 nM and 0.25 nM, respectively. Reactions were incubated at 25° C. for an additional 30 min, then read on an Envision platereader equipped with a LANCE/DELFIA top mirror (Perkin Elmer) using excitation of 320 nm and emission of 615 nm and […] with a […]. The ratio of the 665/615 nm emission were calculated for each well to determine the amount of complex of TIPARP and Probe Ain each well. Control wells containing a negative control of 0.25% DMSO vehicle or a positive control of 100 μM 5-(5-(piperidin-4-yloxy)isoindolin-2-yl)-4-(trifluoromethyl)pyridazin-3(2H)-one were used to calculate the % inhibition as described below:
[formula] where TRFcmpd is the TR-FRET ratio from the compound treated well, TRFmin is the TR-FRET ratio from the 5-(5-(piperidin-4-yloxy)isoindolin-2-yl)-4-(trifluoromethyl)pyridazin-3(2H)-one—treated positive control well and TRFmax is the TR-FRET ratio from the DMSO-treated negative control well. The % inhibition values were plotted as a function of compound concentration and the following 4-parameter fit was applied to derive the IC50 values:
[formula] where top and bottom are normally allowed to float, but may be fixed at 100 or 0 respectively in a 3-parameter fit. The Hill Coefficient is normally allowed to float but may also be fixed at 1 in a 3-parameter fit. Y is the % inhibition and X is the compound concentration. Synthesis of Probe A
Background: Time-resolved FRET reads energy transfer from a long-lived donor to a nearby acceptor.

Where only a bound is given, the exact number is not on record here.

PARP7, sequence (Q7Z3E1 whole entry): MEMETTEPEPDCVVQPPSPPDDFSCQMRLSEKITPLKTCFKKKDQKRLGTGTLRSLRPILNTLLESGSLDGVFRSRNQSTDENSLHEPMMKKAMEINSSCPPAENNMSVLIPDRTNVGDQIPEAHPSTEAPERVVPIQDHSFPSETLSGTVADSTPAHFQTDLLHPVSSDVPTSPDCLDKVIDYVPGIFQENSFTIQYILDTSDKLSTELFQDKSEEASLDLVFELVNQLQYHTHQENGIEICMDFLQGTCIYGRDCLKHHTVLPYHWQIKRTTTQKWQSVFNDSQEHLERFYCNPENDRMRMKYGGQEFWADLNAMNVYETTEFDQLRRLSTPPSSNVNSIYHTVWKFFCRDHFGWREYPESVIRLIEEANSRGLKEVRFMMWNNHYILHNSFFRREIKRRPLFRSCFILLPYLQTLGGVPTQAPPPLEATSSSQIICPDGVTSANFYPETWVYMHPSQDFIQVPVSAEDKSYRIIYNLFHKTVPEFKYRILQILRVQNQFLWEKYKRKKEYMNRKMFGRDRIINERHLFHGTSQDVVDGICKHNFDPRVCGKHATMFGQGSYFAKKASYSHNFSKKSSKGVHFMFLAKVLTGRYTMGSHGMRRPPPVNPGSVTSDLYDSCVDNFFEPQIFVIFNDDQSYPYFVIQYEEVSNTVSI

`C[C@@H](COCC(=O)N[C@H]1CCN(c2ncc(C(F)(F)F)cn2)C[C@@H]1O)Nc1cn[nH]c(=O)c1C(F)(F)F` (single isomer, unassigned) [Example 33B] came in with an IC50 below 100 nM.
In the case of `N#Cc1ccc(N2CCC(N3CC[C@H](OCCNc4cn[nH]c(=O)c4C(F)(F)F)C3=O)CC2)nc1` [Example 36B], the IC50 is below 100 nM.
To `C[C@@H](CO[C@H]1CCN(C2CCN(c3ncc(C(F)(F)F)cn3)CC2)C1=O)Oc1cn[nH]c(=O)c1Cl` [Example 47A, 4-chloro-5-(((S)-1-(((S)-2-oxo-1-(1-(5-(trifluoromethyl)pyrimidin-2-yl)piperidin-4-yl)pyrrolidin-3-yl)oxy)propan-2-yl)oxy)pyridazin-3(2H)-one] belongs 100 to 1000 nM.
The same measure for `COC[C@@H](CO[C@@H]1CCN(C2CCN(c3ncc(C)cn3)CC2)C1=O)Oc1cn[nH]c(=O)c1C(F)(F)F` [Example 52B, 5-(((S)-1-methoxy-3-(((R)-1-(1-(5-methylpyrimidin-2-yl)piperidin-4-yl)-2-oxopyrrolidin-3-yl)oxy)propan-2-yl)oxy)-4-(trifluoromethyl)pyridazin-3(2H)-one]: below 100 nM; for `COC[C@@H](CO[C@H]1CCN(C2CCN(c3ccc(C#N)cn3)CC2)C1=O)Oc1cn[nH]c(=O)c1Br` [Example 55A, 6-(4-((S)-3-((S)-2-((5-bromo-6-oxo-1,6-dihydropyridazin-4-yl)oxy)-3-methoxypropoxy)-2-oxopyrrolidin-1-yl)piperidin-1-yl)nicotinonitrile]: at least 1000 nM.
To `C[C@@H](COCC(=O)N(C)C1CCN(c2ncc(C(F)(F)F)s2)CC1)Nc1cn[nH]c(=O)c1C(F)(F)F` [Example 3, (S)—N-methyl-2-(2-((6-oxo-5-(trifluoromethyl)-1,6-dihydropyridazin-4-yl)amino)propoxy)-N-(1-(5-(trifluoromethyl)thiazol-2-yl)piperidin-4-yl)acetamide] belongs below 100 nM; to `COC[C@@H](CO[C@H]1CCN(C2CCN(c3ncc(C(F)(F)F)cn3)CC2)C1=O)Nc1cn[nH]c(=O)c1C(F)(F)F` [Example 19A, 5-(((S)-1-methoxy-3-(((S)-2-oxo-1-(1-(5-(trifluoromethyl)pyrimidin-2-yl)piperidin-4-yl)pyrrolidin-3-yl)oxy)propan-2-yl)amino)-4-(trifluoromethyl)pyridazin-3(2H)-one], 100 to 1000 nM; to `C[C@@H](CO[C@@H]1CCN(C2CCN(c3ncc(C(F)(F)F)cn3)CC2C#N)C1=O)Nc1cn[nH]c(=O)c1C(F)(F)F` (stereo partly drawn) [Example 69, 4-((R)-2-oxo-3-((S)-2-((6-oxo-5-(trifluoromethyl)-1,6-dihydropyridazin-4-yl)amino)propoxy)pyrrolidin-1-yl)-1-(5-(trifluoromethyl)pyrimidin-2-yl)piperidine-3-carbonitrile], below 100 nM.
As to `C[C@@H](CO[C@@H]1CCN([C@@H]2CCN(c3ncc(C(F)(F)F)cn3)C[C@@H]2O)C1=O)Nc1cn[nH]c(=O)c1C(F)(F)F` [Example 59, 5-(((S)-1-(((R)-1-((3S,4R)-3-hydroxy-1-(5-(trifluoromethyl)pyrimidin-2-yl)piperidin-4-yl)-2-oxopyrrolidin-3-yl)oxy)propan-2-yl)amino)-4-(trifluoromethyl)pyridazin-3(2H)-one], the IC50 is below 100 nM.
To `COC[C@@H](CO[C@H]1CCN(C2CCN(c3ccc(C#N)cn3)CC2)C1=O)Oc1cn[nH]c(=O)c1C(F)(F)F` [Example 50A, 6-(4-((S)-3-((S)-3-methoxy-2-((6-oxo-5-(trifluoromethyl)-1,6-dihydropyridazin-4-yl)oxy)propoxy)-2-oxopyrrolidin-1-yl)piperidin-1-yl)nicotinonitrile] belongs 100 to 1000 nM; to `COC[C@@H](CO[C@@H]1CCN(C2CCN(c3ncc(C)cn3)CC2)C1=O)Nc1cn[nH]c(=O)c1C(F)(F)F` [Example 53, 5-(((S)-1-methoxy-3-(((R)-1-(1-(5-methylpyrimidin-2-yl)piperidin-4-yl)-2-oxopyrrolidin-3-yl)oxy)propan-2-yl)amino)-4-(trifluoromethyl)pyridazin-3(2H)-one], below 100 nM; to `C[C@H](CN[C@H]1CCN(C2CCN(c3ncc(C(F)(F)F)cn3)CC2)C1=O)Nc1cn[nH]c(=O)c1C(F)(F)F` (single isomer, unassigned) [Example 26C], at least 1000 nM.
To `C[C@@H](COCC(=O)N(C)C1CCN(c2ncc(C(F)(F)F)cn2)CC1)Nc1cn[nH]c(=O)c1C(F)(F)F` [Example 2, (S)—N-methyl-2-(2-(6-oxo-5-(trifluoromethyl)-1,6-dihydropyridazin-4-ylamino)propoxy)-N-(1-(5-(trifluoromethyl)pyrimidin-2-yl)piperidin-4-yl)acetamide] belongs below 100 nM.
To `C[C@@H](CO[C@@H]1CCN(C2CCN(c3ncc(C(F)(F)F)cn3)CC2O)C1=O)Oc1cn[nH]c(=O)c1C(F)(F)F` (stereo partly drawn) [Example 64B, Syn-5-(((2S)-1-(((3R)-1-(3-hydroxy-1-(5-(trifluoromethyl)pyrimidin-2-yl)piperidin-4-yl)-2-oxopyrrolidin-3-yl)oxy)propan-2-yl)oxy)-4-(trifluoromethyl)pyridazin-3(2H)-one] belongs below 100 nM.
In turn, `C[C@@H](CO[C@H]1CCN(C2CCN(c3ccc(C#N)cn3)CC2)C1=O)Oc1cn[nH]c(=O)c1Br` [Example 48B] returned a half-inhibitory concentration (IC50) below 100 nM.
`C[C@@H](CO[C@@H]1CCN(C2CCN(c3ccc(C#N)cn3)CC2)C1=O)Nc1cn[nH]c(=O)c1C(F)(F)F` [Example 14B, 6-(4-((R)-2-oxo-3-((S)-2-((6-oxo-5-(trifluoromethyl)-1,6-dihydropyridazin-4-yl)amino)propoxy)pyrrolidin-1-yl)piperidin-1-yl)nicotinonitrile]: the IC50 is below 100 nM.
To `C[C@@H](CO[C@H]1CCN(C2CCN(c3cnc(C(F)(F)F)cn3)CC2)C1=O)Nc1cn[nH]c(=O)c1C(F)(F)F` [Example 13A, 5-(((S)-1-(((S)-2-oxo-1-(1-(5-(trifluoromethyl)pyrazin-2-yl)piperidin-4-yl)pyrrolidin-3-yl)oxy)propan-2-yl)amino)-4-(trifluoromethyl)pyridazin-3(2H)-one] belongs 100 to 1000 nM; to `COC[C@@H](CO[C@@H]1CCN(C2CCN(c3ncc(C(F)(F)F)cn3)CC2)C1=O)Oc1cn[nH]c(=O)c1C(F)(F)F` [Example 51B, 5-(((S)-1-methoxy-3-(((R)-2-oxo-1-(1-(5-(trifluoromethyl)pyrimidin-2-yl)piperidin-4-yl)pyrrolidin-3-yl)oxy)propan-2-yl)oxy)-4-(trifluoromethyl)pyridazin-3(2H)-one], below 100 nM; to `N#Cc1ccc(N2CCC(N3CC[C@@H](OCCNc4cn[nH]c(=O)c4C(F)(F)F)C3=O)CC2)nc1` [Example 36A], below 100 nM.
In turn, `C[C@@H](COCC(=O)N[C@@H]1CCN(c2ncc(C(F)(F)F)cn2)C[C@H]1O)Nc1cn[nH]c(=O)c1C(F)(F)F` (single isomer, unassigned) [Example 33A] returned an IC50 below 100 nM.
The same measure for `C[C@@H](CO[C@@H]1CCN(C2CCN(c3ncc(Cl)cn3)CC2)C1=O)Nc1cn[nH]c(=O)c1C(F)(F)F` [Example 16, 5-(((S)-1-(((R)-1-(1-(5-chloropyrimidin-2-yl)piperidin-4-yl)-2-oxopyrrolidin-3-yl)oxy)propan-2-yl)amino)-4-(trifluoromethyl)pyridazin-3(2H)-one]: below 100 nM.

As a reminder, the IC50 is the concentration at which inhibition is half-maximal. Low values mean greater potency in that assay, high ones weaker potency in that assay.
